Key:
Assay type in all cases: in vivo
[1] = tested on: upland rice (Oryza sp., var.Tebonnet, RICE); experiment: Post-emerge greenhouse test, crop damage rating; settings: 14 days after application, scale 0-100
How it was run: (§1)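 Plants at the 2-3 leaf stage, sown 8-21 days earlier, were track-sprayed post-emergence with compound in acetone plus 0.25% v/v non-ionic surfactant at 63-1000 g ai/ha (187 l/ha). Damage was rated at 14 days on a 0-100 scale (0 none, 100 all plants dead), for both crop injury and weed control.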

[2] = tested on: field corn (Zea mays L., var. Dekalb 535, CORN); experiment: Post-emerge greenhouse test, crop damage rating; settings: 14 days after application, scale 0-100
How it was run: as §1

[3] = tested on: redroot pigweed (Amaranthus retroflexus, AMARE); experiment: Pre-emerge greenhouse herbicide test, phytotoxicity rating; settings: 14 days after application, rating scale 0-100
How it was run: (§2)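 Seeds sown in sandy loam one day before track-sprayer application of acetone solutions at 125–1000 g ai/ha (187 l/ha), then surface-watered to incorporate and bottom-watered. Injury scored visually at 14 days on a 0–100 scale (0 no damage, 100 complete death).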

[4] = tested on: green foxtail (Setaria viridis, SETVI); experiment: as above; settings: 14 days after application, rating scale 0-100
How it was run: as §2

[5] = tested on: velvetleaf (Abutilon theophrasti, ABUTH); experiment: as above; settings: 14 days after application, rating scale 0-100
How it was run: as §2

[6] = tested on: barnyardgrass (Echinochloa crusgalli, ECHCG); experiment: as above; settings: 14 days after application, rating scale 0-100
How it was run: as §2

[7] = tested on: large crabgrass (Digitaria sanguinalis, DIGSA); experiment: as above; settings: 14 days after application, rating scale 0-100
How it was run: as §2

[8] = tested on: common ragweed (Ambrosia artemisiifolia L., AMBEL); experiment: as above; settings: 14 days after application, rating scale 0-100
How it was run: as §2

[9] = tested on: ivyleaf morningglory (Ipomoea hederacea, IPOHE); experiment: as above; settings: 14 days after application, rating scale 0-100
How it was run: as §2

[10] = tested on: Johnsongrass (Sorghum halepense, SORHA); experiment: as above; settings: 14 days after application, rating scale 0-100
How it was run: as §2

[11] = tested on: sicklepod (Cassia obtusifolia, CASOB); experiment: as above; settings: 14 days after application, rating scale 0-100
How it was run: as §2

[12] = tested on: lambsquarters (Chenopodium album, CHEAL); experiment: as above; settings: 14 days after application, rating scale 0-100
How it was run: as §2

[13] = tested on: soybean (Glycine max L., var. Pella 86, SOY); experiment: Pre-emerge greenhouse test, crop damage rating; parameters: key to SOY crop damage rating: 0 = no damage, 100 = complete death of all plants; settings: 14 days after application, rating scale 0-100
How it was run: as §2

[14] = tested on: soybean (Glycine max L., var. Pella 86, SOY); experiment: Post-emerge greenhouse test, crop damage rating; parameters: key to crop damage rating SOY: 0-100 scale: 0 = no damage, 100 = complete death of all plants; settings: 14 days after application, scale 0-100
How it was run: as §1

[15] = tested on: upland rice (Oryza sp., var.Tebonnet, RICE); experiment: Pre-emerge greenhouse test, crop damage rating; settings: 14 days after application, rating scale 0-100
How it was run: as §2

[16] = tested on: field corn (Zea mays L., var. Dekalb 535, CORN); experiment: Pre-emerge greenhouse test, crop damage rating; settings: 14 days after application, rating scale 0-100
How it was run: as §2

[17] = tested on: common ragweed (Ambrosia artemisiifolia L., AMBEL); experiment: Post-emerge greenhouse herbicide test, phytotoxicity rating; settings: 14 days after application, scale 0-100
How it was run: as §1

[18] = tested on: redroot pigweed (Amaranthus retroflexus, AMARE); experiment: as above; settings: 14 days after application, scale 0-100
How it was run: as §1

[19] = tested on: green foxtail (Setaria viridis, SETVI); experiment: as above; settings: 14 days after application, scale 0-100
How it was run: as §1

[20] = tested on: velvetleaf (Abutilon theophrasti, ABUTH); experiment: as above; settings: 14 days after application, scale 0-100
How it was run: as §1

[21] = tested on: barnyardgrass (Echinochloa crusgalli, ECHCG); experiment: as above; settings: 14 days after application, scale 0-100
How it was run: as §1

[22] = tested on: large crabgrass (Digitaria sanguinalis, DIGSA); experiment: as above; settings: 14 days after application, scale 0-100
How it was run: as §1

[23] = tested on: ivyleaf morningglory (Ipomoea hederacea, IPOHE); experiment: as above; settings: 14 days after application, scale 0-100
How it was run: as §1

[24] = tested on: Johnsongrass (Sorghum halepense, SORHA); experiment: as above; settings: 14 days after application, scale 0-100
How it was run: as §1

[25] = tested on: sicklepod (Cassia obtusifolia, CASOB); experiment: as above; settings: 14 days after application, scale 0-100
How it was run: as §1

[26] = tested on: lambsquarters (Chenopodium album, CHEAL); experiment: as above; settings: 14 days after application, scale 0-100
How it was run: as §1

## O=c1n(-c2cc(Oc3cccc(Cl)n3)c(Cl)cc2F)c(=S)n2n1CCCC2 [Compound 8-26]
[1]; rate 500 g ai/ha
  crop damage rating RICE: 0
[2]; rate 500 g ai/ha
  crop damage rating CORN: 0
[3]; Rate 500 g al/ha
  AMARE phytotoxicity rating: 0
[4]; Rate 500 g al/ha
  SETVI phytotoxicity rating: 0
[5]; Rate 500 g al/ha
  ABUTH phytotoxicity rating: 0
[6]; Rate 500 g al/ha
  ECHCG phytotoxicity rating: 0
[7]; Rate 500 g al/ha
  DIGSA phytotoxicity rating: 0
[8]; Rate 500 g al/ha
  AMBEL phytotoxicity rating: 0
[9]; Rate 500 g al/ha
  IPOHE phytotoxicity rating: 0
[10]; Rate 500 g al/ha
  SORHA phytotoxicity rating: 0
[11]; Rate 500 g al/ha
  CASOB phytotoxicity rating: 0
[12]; Rate 500 g al/ha
  CHEAL phytotoxicity rating: 0
[13]; Rate 500 g al/ha
  SOY crop damage rating: 0
[14]; rate 500 g ai/ha
  crop damage rating SOY: 0
[15]; Rate 500 g al/ha
  RICE crop damage rating: 0
[16]; Rate 500 g al/ha
  CORN crop damage rating: 0
[17]; rate 500 g ai/ha
  phytotoxicity rating AMBEL: 0
[18]; rate 500 g ai/ha
  phytotoxicity rating AMARE: 0
[19]; rate 500 g ai/ha
  phytotoxicity rating SETVI: 0
[20]; rate 500 g ai/ha
  phytotoxicity rating ABUTH: 0
[21]; rate 500 g ai/ha
  phytotoxicity rating ECHCG: 0
[22]; rate 500 g ai/ha
  phytotoxicity rating DIGSA: 0
[23]; rate 500 g ai/ha
  phytotoxicity rating IPOHE: 0
[24]; rate 500 g ai/ha
  phytotoxicity rating SORHA: 0
[25]; rate 500 g ai/ha
  phytotoxicity rating CASOB: 0
[26]; rate 500 g ai/ha
  phytotoxicity rating CHEAL: 0

## O=c1n(-c2cc(Oc3nc(Cl)ccc3C(F)(F)F)c(Cl)cc2F)c(=S)n2n1CCCC2 [Compound 8-27]
[1]; rate 63 g ai/ha
  crop damage rating RICE: 0
[1]; rate 500 g ai/ha
  crop damage rating RICE: 5
[2]; rate 63 g ai/ha
  crop damage rating CORN: 5
[2]; rate 500 g ai/ha
  crop damage rating CORN: 10
[3]; Rate 125 g al/ha
  AMARE phytotoxicity rating: 100
[3]; Rate 500 g al/ha
  AMARE phytotoxicity rating: 100
[4]; Rate 125 g al/ha
  SETVI phytotoxicity rating: 60
[4]; Rate 500 g al/ha
  SETVI phytotoxicity rating: 100
[5]; Rate 125 g al/ha
  ABUTH phytotoxicity rating: 50
[5]; Rate 500 g al/ha
  ABUTH phytotoxicity rating: 100
[6]; Rate 125 g al/ha
  ECHCG phytotoxicity rating: 0
[6]; Rate 500 g al/ha
  ECHCG phytotoxicity rating: 0
[7]; Rate 125 g al/ha
  DIGSA phytotoxicity rating: 10
[7]; Rate 500 g al/ha
  DIGSA phytotoxicity rating: 50
[8]; Rate 125 g al/ha
  AMBEL phytotoxicity rating: 0
[8]; Rate 500 g al/ha
  AMBEL phytotoxicity rating: 0
[9]; Rate 125 g al/ha
  IPOHE phytotoxicity rating: 0
[9]; Rate 500 g al/ha
  IPOHE phytotoxicity rating: 30
[10]; Rate 125 g al/ha
  SORHA phytotoxicity rating: 0
[10]; Rate 500 g al/ha
  SORHA phytotoxicity rating: 30
[11]; Rate 125 g al/ha
  CASOB phytotoxicity rating: 0
[11]; Rate 500 g al/ha
  CASOB phytotoxicity rating: 80
[12]; Rate 125 g al/ha
  CHEAL phytotoxicity rating: 80
[12]; Rate 500 g al/ha
  CHEAL phytotoxicity rating: 100
[13]; Rate 125 g al/ha
  SOY crop damage rating: 0
[13]; Rate 500 g al/ha
  SOY crop damage rating: 0
[14]; rate 63 g ai/ha
  crop damage rating SOY: 70
[14]; rate 500 g ai/ha
  crop damage rating SOY: 80
[15]; Rate 125 g al/ha
  RICE crop damage rating: 0
[15]; Rate 500 g al/ha
  RICE crop damage rating: 10
[16]; Rate 125 g al/ha
  CORN crop damage rating: 0
[16]; Rate 500 g al/ha
  CORN crop damage rating: 0
[17]; rate 63 g ai/ha
  phytotoxicity rating AMBEL: 60
[17]; rate 500 g ai/ha
  phytotoxicity rating AMBEL: 85
[18]; rate 63 g ai/ha
  phytotoxicity rating AMARE: 90
[18]; rate 500 g ai/ha
  phytotoxicity rating AMARE: 100
[19]; rate 63 g ai/ha
  phytotoxicity rating SETVI: 50
[19]; rate 500 g ai/ha
  phytotoxicity rating SETVI: 50
[20]; rate 63 g ai/ha
  phytotoxicity rating ABUTH: 80
[20]; rate 500 g ai/ha
  phytotoxicity rating ABUTH: 100
[21]; rate 63 g ai/ha
  phytotoxicity rating ECHCG: 0
[21]; rate 500 g ai/ha
  phytotoxicity rating ECHCG: 10
[22]; rate 63 g ai/ha
  phytotoxicity rating DIGSA: 10
[22]; rate 500 g ai/ha
  phytotoxicity rating DIGSA: 20
[23]; rate 63 g ai/ha
  phytotoxicity rating IPOHE: 50
[23]; rate 500 g ai/ha
  phytotoxicity rating IPOHE: 80
[24]; rate 63 g ai/ha
  phytotoxicity rating SORHA: 30
[24]; rate 500 g ai/ha
  phytotoxicity rating SORHA: 20
[25]; rate 63 g ai/ha
  phytotoxicity rating CASOB: 30
[25]; rate 500 g ai/ha
  phytotoxicity rating CASOB: 100
[26]; rate 63 g ai/ha
  phytotoxicity rating CHEAL: 90
[26]; rate 500 g ai/ha
  phytotoxicity rating CHEAL: 100

Source: US6479435B1, “Diaryl ethers and processes for their preparation and herbicidal and desiccant compositions containing them” (ISK Americas Incorporated, priority 1997, dated 2002)
